From paper PMC9928118, “Funneling modulatory peptide design with generative models: Discovery and characterization of disruptors of calcineurin protein-protein interactions” (PLOS Computational Biology, 2023)

Tested on: GST-tagged Cn
Test: PEPperPRINT peptide microarray binding assay with GST-tagged Cn
Method in brief: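 Qualitative binding: peptides printed on a PEPperPRINT microarray were incubated overnight at 4 °C with 1 mg/ml GST-tagged Cn, then detected with Alexa-Fluor 647 anti-GST antibody. Log fluorescence was baseline-corrected, averaged over duplicate spots, Z-normalized and averaged across five repeats.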

[1] = GST-tagged Cn, max over the chip spots listed under Location on chip
[2] = GST-tagged Cn, mean over the chip spots listed under Location on chip
[3] = GST-tagged Cn, max over the chip locations
[4] = GST-tagged Cn, mean over the chip locations
[5] = GST-tagged Cn, max over the spots on the chip (two locations)
[6] = GST-tagged Cn, mean over the spots on the chip (two locations)
[7] = GST-tagged Cn, max over the spots named in Location on chip
[8] = GST-tagged Cn, mean over the spots named in Location on chip
[9] = max over the chip locations listed for the peptide (two spots)
[10] = mean over the chip locations listed for the peptide (two spots)
[11] = max over the spots listed under Location on chip
[12] = mean over the spots listed under Location on chip

RNPGQALLTLEGHSAS [SeqRBMlowT_5868]
Chip Fluorescence (max) [1]: 0.6524 | Chip Fluorescence (mean) [2]: -0.2838

RNPGQALLTLRGHKAQ [SeqRBMlowT_5824]
Chip Fluorescence (max) [3]: -0.7814 | Chip Fluorescence (mean) [4]: -1.225

RNPGQALLTLRGHKAS [SeqRBMlowT_7787]
Chip Fluorescence (max) [1]: 0.3829 | Chip Fluorescence (mean) [2]: -0.6837

RNPGQALLTLRGHKKQ [SeqRBMlowT_5826]
Chip Fluorescence (max) [5]: 1.2153 | Chip Fluorescence (mean) [6]: 0.1411

RNPGQALLTLRGHSAS [SeqRBMlowT_5835]
Chip Fluorescence (max) [1]: 0.6321 | Chip Fluorescence (mean) [2]: -0.2233

RNPGQALLTLRGHSKQ [SeqRBMlowT_6189]
Chip Fluorescence (max) [7]: 1.609 | Chip Fluorescence (mean) [8]: 0.3772

RNPGQPLLELEGHSAP [SeqRBMlowT_7742]
Chip Fluorescence (max) [9]: 5.135 | Chip Fluorescence (mean) [10]: 0.4912

RNPGSPTLELNGHSGG [SeqRBM_9695]
Chip Fluorescence (max) [5]: 1.159 | Chip Fluorescence (mean) [6]: -0.3352

RNPGSPVLELEGHSAS [SeqRBMlowT_6392]
Chip Fluorescence (max) [3]: -0.1475 | Chip Fluorescence (mean) [4]: -0.4043

RNPGTALLELRGHKAS [SeqRBMlowT_6384]
Chip Fluorescence (max) [5]: 1.174 | Chip Fluorescence (mean) [6]: 0.5723

RNPGTALLELRGHSAS [SeqRBMlowT_6200]
Chip Fluorescence (max) [11]: 2.68 | Chip Fluorescence (mean) [12]: 1.087

RNPGTALLTLRGHKKQ [SeqRBMlowT_5859]
Chip Fluorescence (max) [3]: 0.05866 | Chip Fluorescence (mean) [4]: -0.8616

RNPGTAPLTLKGHKKQ [SeqRBMlowT_6124]
Chip Fluorescence (max) [11]: 2.7668 | Chip Fluorescence (mean) [12]: 0.4787

RNPGTFPLELEGHKKQ [SeqRBMlowT_8768]
Chip Fluorescence (max) [11]: 3.224 | Chip Fluorescence (mean) [12]: 1.049

RNPGTFPLTLEGHKKQ [SeqRBMlowT_6333]
Chip Fluorescence (max) [5]: 1.229 | Chip Fluorescence (mean) [6]: -0.4106

RNPGTPLLELKGHAAS [SeqRBMlowT_8729]
Chip Fluorescence (max) [3]: -0.2859 | Chip Fluorescence (mean) [4]: -0.9089

RNYINPQAQFTYDSGA [SeqRBM_6031]
Chip Fluorescence (max) [3]: -0.2579 | Chip Fluorescence (mean) [4]: -0.9244

RQGAGPILVLEGHWDA [SeqRBM_4400]
Chip Fluorescence (max) [11]: 3.288 | Chip Fluorescence (mean) [12]: -1.788

RQPGQALLELKGHAGA [SeqYPL247C_Erysiphe_pulchra]
Chip Fluorescence (max) [9]: 4.952 | Chip Fluorescence (mean) [10]: 0.4575

RQPGQALLTLRGHKKQ [SeqRBMlowT_5816]
Chip Fluorescence (max) [7]: 1.5016 | Chip Fluorescence (mean) [8]: 0.5912

RQPGQALLTLRGHSAP [SeqRBMlowT_5806]
Chip Fluorescence (max) [7]: 1.328 | Chip Fluorescence (mean) [8]: -0.3044

RQPGQALLTLRGHSAS [SeqRBMlowT_5869]
Chip Fluorescence (max) [1]: 0.727 | Chip Fluorescence (mean) [2]: -0.3106

RQPGQALLTLRGHSKS [SeqRBMlowT_7741]
Chip Fluorescence (max) [11]: 2.813 | Chip Fluorescence (mean) [12]: 0.6175

RQPGTALLELGGHKKQ [SeqRBMlowT_7758]
Chip Fluorescence (max) [5]: 1.043 | Chip Fluorescence (mean) [6]: 0.136

RQPGTALLTLRGHKKQ [SeqRBMlowT_5805]
Chip Fluorescence (max) [7]: 1.524 | Chip Fluorescence (mean) [8]: 0.2674

RQPGTAPANLVGHKKQ [SeqRBM_2906]
Chip Fluorescence (max) [1]: 0.7504 | Chip Fluorescence (mean) [2]: -0.5221

RQPGTFLLTLRGHKKQ [SeqRBMlowT_6149]
Chip Fluorescence (max) [1]: 0.9861 | Chip Fluorescence (mean) [2]: 0.123

RQPGTLGLTLEGHSNS [SeqRBM_7786]
Chip Fluorescence (max) [1]: 0.7712 | Chip Fluorescence (mean) [2]: -0.3628

RSPGTFPLELSGHKKQ [SeqRBMlowT_6356]
Chip Fluorescence (max) [5]: 1.326 | Chip Fluorescence (mean) [6]: -0.7748

RSYDVPVFLFTYLPNP [SeqRBM_7048]
Chip Fluorescence (max) [9]: 4.515 | Chip Fluorescence (mean) [10]: 0.06008

RSYINPFVTFLDHGHR [SeqSFB3_Blumeria_graminis]
Chip Fluorescence (max) [1]: 0.7568 | Chip Fluorescence (mean) [2]: -0.5098

RSYVNPAYSFTFDSKA [SeqSFB3_Lachancea_meyersii]
Chip Fluorescence (max) [7]: 1.532 | Chip Fluorescence (mean) [8]: -0.902

RTLINPSVAFLYMGSR [SeqRBM_5357]
Chip Fluorescence (max) [5]: 1.016 | Chip Fluorescence (mean) [6]: -0.7287

RTNLNPFFFFTSDSKN [SeqRBM_2819]
Chip Fluorescence (max) [3]: -0.6014 | Chip Fluorescence (mean) [4]: -1.251

RTPGTALLTLRGHKKQ [SeqRBMlowT_5808]
Chip Fluorescence (max) [3]: 0.1527 | Chip Fluorescence (mean) [4]: -0.8232

RTPGTFLLTLRGHKKQ [SeqRBMlowT_7783]
Chip Fluorescence (max) [11]: 2.997 | Chip Fluorescence (mean) [12]: 0.7866

RTPGTFPLTLKGHKKQ [SeqRBMlowT_6382]
Chip Fluorescence (max) [7]: 1.729 | Chip Fluorescence (mean) [8]: 0.4598

RTRRISPLFDNPNSKQ [Seqshuffled_9774]
Chip Fluorescence (max) [9]: 4.819 | Chip Fluorescence (mean) [10]: 0.7359

RTYINPFMKFTIWGTQ [SeqRBM_6386]
Chip Fluorescence (max) [7]: 1.359 | Chip Fluorescence (mean) [8]: -0.5299

RTYINPFMQFTDGGRF [SeqRBMlowT_552]
Chip Fluorescence (max) [11]: 2.5867 | Chip Fluorescence (mean) [12]: 0.5553

RTYINPFVTFVDGGNK [SeqRBMlowT_3664]
Chip Fluorescence (max) [3]: 0.3337 | Chip Fluorescence (mean) [4]: -0.6971

RTYMNPFASFLDHSHR [SeqSFB3_Pseudocercospora_musae]
Chip Fluorescence (max) [5]: 1.14 | Chip Fluorescence (mean) [6]: -0.1201

RVLECPSIRITSISPT [SeqNFATC4_Homo_sapiens]
Chip Fluorescence (max) [3]: 0.1768 | Chip Fluorescence (mean) [4]: -0.8782

SAASFRIKQIEFMVSA [Seqshuffled_4815]
Chip Fluorescence (max) [1]: 0.7621 | Chip Fluorescence (mean) [2]: -0.8277

SAGAGVGIVITVTEAE [SeqRBMlowT_164]
Chip Fluorescence (max) [7]: 1.523 | Chip Fluorescence (mean) [8]: -0.8688

SAGAGVQIVITVTEAE [SeqRBMlowT_1437]
Chip Fluorescence (max) [5]: 1.271 | Chip Fluorescence (mean) [6]: -0.4781

SAGTGVGIVITVTEAE [SeqRBMlowT_1404]
Chip Fluorescence (max) [9]: 4.275 | Chip Fluorescence (mean) [10]: 0.4123

SDEAGPRIVITATELP [SeqRBMlowT_4492]
Chip Fluorescence (max) [11]: 2.835 | Chip Fluorescence (mean) [12]: 0.5943

SDEAGVRIVITVTEAP [SeqRBMlowT_9535]
Chip Fluorescence (max) [5]: 1.153 | Chip Fluorescence (mean) [6]: -0.5729

SDSANPEITITPAELP [SeqRBMlowT_1995]
Chip Fluorescence (max) [9]: 3.663 | Chip Fluorescence (mean) [10]: 2.123

SFVHLPDFKVESLVRR [Seqshuffled_9544]
Chip Fluorescence (max) [9]: 4.191 | Chip Fluorescence (mean) [10]: 0.5898

SFWANPQFIVSLEEPD [SeqRBMlowT_610]
Chip Fluorescence (max) [1]: 0.3721 | Chip Fluorescence (mean) [2]: -0.5491

SFWTNPQFKITLEEPD [SeqRBMlowT_6820]
Chip Fluorescence (max) [9]: 5.89 | Chip Fluorescence (mean) [10]: 1.37

SFWTNPQFRVKLEEVD [SeqRBMlowT_8566]
Chip Fluorescence (max) [5]: 1.129 | Chip Fluorescence (mean) [6]: 0.3513

SHKASPPTLNESPVTH [SeqRBM_2083]
Chip Fluorescence (max) [3]: -0.06558 | Chip Fluorescence (mean) [4]: -1.173

SHMAPPAINIDFAPSN [SeqCRZ1_Metarhizium_rileyi]
Chip Fluorescence (max) [3]: 0.3108 | Chip Fluorescence (mean) [4]: -0.9278

SKLMCVTLAIGSLSTS [SeqRBM_2514]
Chip Fluorescence (max) [5]: 1.101 | Chip Fluorescence (mean) [6]: -0.2904

SKMAIAIYQMASCLLH [Seqshuffled_9384]
Chip Fluorescence (max) [7]: 1.655 | Chip Fluorescence (mean) [8]: 0.8527

SLDEEPGISINEKPVG [Seqshuffled_9948]
Chip Fluorescence (max) [7]: 1.684 | Chip Fluorescence (mean) [8]: 0.5765

SLKLWMLLGIEAFTLS [SeqRBM_4562]
Chip Fluorescence (max) [5]: 1.02 | Chip Fluorescence (mean) [6]: 0.3817

SNLACNDRHPNNEDAK [Seqshuffled_9450]
Chip Fluorescence (max) [9]: 5.333 | Chip Fluorescence (mean) [10]: 1.133

SNSTNPEITITPAELC [SeqRIPOR2_Tarsius_syrichta]
Chip Fluorescence (max) [9]: 7.538 | Chip Fluorescence (mean) [10]: 1.227

SPSIVANADLVVPYSE [SeqRBM_1237]
Chip Fluorescence (max) [1]: 0.5354 | Chip Fluorescence (mean) [2]: -0.2316

SPSNPPEIIISSREDN [SeqKCNN2_Mus_musculus]
Chip Fluorescence (max) [11]: 3.195 | Chip Fluorescence (mean) [12]: 0.7018

SQAKSPRIEITAYTHV [SeqRBM_8514]
Chip Fluorescence (max) [1]: 0.9232 | Chip Fluorescence (mean) [2]: -0.444

SQFDQVHYGLHIATFH [Seqshuffled_4372]
Chip Fluorescence (max) [5]: 1.111 | Chip Fluorescence (mean) [6]: 0.4902

SQLAAPAINIDFAPTN [SeqRBMlowT_5061]
Chip Fluorescence (max) [3]: 0.08477 | Chip Fluorescence (mean) [4]: -0.8412

SQMAAPAINIDFAPTN [SeqRBMlowT_314]
Chip Fluorescence (max) [5]: 0.998 | Chip Fluorescence (mean) [6]: -0.1818

SQMGKSRPWVSPERDN [SeqRBM_2721]
Chip Fluorescence (max) [1]: 0.7358 | Chip Fluorescence (mean) [2]: -0.1667

SRPLDEEGAMAPTLAN [SeqRIPOR2_Propithecus_coquereli]
Chip Fluorescence (max) [1]: 0.9511 | Chip Fluorescence (mean) [2]: 0.1118

SSAAPPAINIDFAPTN [SeqRBMlowT_5045]
Chip Fluorescence (max) [3]: -0.1972 | Chip Fluorescence (mean) [4]: -1.194

SSEYQESLCIENFSAN [SeqRBM_3304]
Chip Fluorescence (max) [7]: 1.766 | Chip Fluorescence (mean) [8]: 0.6423

SSKSLPTFSFSSPVSH [SeqRBMlowT_6060]
Chip Fluorescence (max) [7]: 1.331 | Chip Fluorescence (mean) [8]: 0.1061

SSLECPHVQVTVSGQR [SeqRBM_6881]
Chip Fluorescence (max) [7]: 1.51 | Chip Fluorescence (mean) [8]: 0.9297

SSMAPPAINIDFAPTN [SeqRBMlowT_1806]
Chip Fluorescence (max) [7]: 1.404 | Chip Fluorescence (mean) [8]: 0.3806

SSQGSSRPARSPERTV [SeqRBM_2387]
Chip Fluorescence (max) [1]: 0.4699 | Chip Fluorescence (mean) [2]: -0.1808

SSRIQSKIVVNEPKQI [SeqRBM_7418]
Chip Fluorescence (max) [3]: -0.3136 | Chip Fluorescence (mean) [4]: -1.152
